biological target: human GPR120 (Homo sapiens (Human), UniProt Q5NUL3); experiment: GPR120 pERK AlphaScreen SureFire assay (human GPR120 pERK assay); type: cell-based; conditions: CHOA12 or CHO-K1 cells stably transfected with short form of human GPR120, 100% = 50 μM linolenic acid
Excerpt: GPR120 activity was monitored by measuring phosphorylation of ERK (pERK), since G protein receptors are known to activate the ERK signaling cascade either directly and/or through recruitment of arrestin that serves as a scaffold for downstream signaling events.
GPR120 pERK AlphaScreen SureFire Assay
The human and mouse GPR120-mediated intracellular phosphorylated ERK assays were established using CHOA12 cells stably transfected with the short form of human or mouse GPR120 receptor. Cells were cultured in growth medium consisting of F-12 media (Invitrogen Cat. #11765) with 5% Charcoal/Dextran FBS (Invitrogen Cat. #12676-029), 500 μg/mL GENETICIN® (Life Technologies Cat. #10131-027) and 250 μg/mL Zeocin (Invitrogen Cat. #R250-01). Cells were cryo preserved at a concentration of 2×10^7 cells/mL, in 90% Charcoal/Dextran FBS and 10% DMSO, and frozen in liquid nitrogen at a low passage number.
For the pERK assay, 2×10^7 cells/mL cryopreserved human and mouse cells were thawed rapidly in a 37° C. water bath and added to a T-225 flask containing 50 mL growth medium. The flasks were placed in a tissue culture incubator overnight (37° C., 5% CO2). The next day, cells were harvested with trypsin (Gibco Cat. #25300-054), resuspended in serum-containing growth medium and counted using a Cellometer and volume adjusted to a concentration of 0.6×10^6 cells/mL. Cells were plated into 384-well clear bottom tissue culture plates (BD Cat. #353962) at 50 μL/well, for a density of 30,000 cells/well using a MULTIDROP® and incubated for 16-18 hours (overnight) at 37° C. with 5% CO2. The next day, cells were serum starved in 30 μL of F-12 media without any serum or antibiotics for 2 hours at 37° C.
Test compounds were 3-fold, 11-point serially diluted in DMSO in a REMP assay plate (Matrix Cat. #4307) by Tecan and 5 μL was transferred into an ECHO source plate (Labcyte Cat. #LC-0200). Cells were then stimulated with 50 nL of compound dilutions using ECHO liquid handler for 7 minutes at 37° C. Compounds ranged from final assay concentrations of 33.33 μM to 0.56 nM.
The media was then dumped and cells lysed with 20 μL of 1× Lysis buffer from the AlphaScreen SureFire Phospho-ERK 1/2 Kit (Perkin Elmer Cat. #6760617M). The lysis buffer was diluted 5-fold with water before use. The plate was agitated on a shaker for 10 minutes after which 2 μL was transferred into a 384-well white proxiplate (Perkin Elmer Cat. #6008289). The SureFire assay reagent mix was prepared by mixing 60 parts Reaction Buffer, 10 parts Activation Buffer, 1 part Donor Beads, 1 part Acceptor Beads (Perkin Elmer Cat. #TGRES10K). 3.5 μL/well of this reagent mix was manually added to the proxiplate with a multichannel pipettor. Plates were spun down at 1000 rpm for 2 minutes, followed by light-protected incubation at room temperature for 2 hours. The plates were read on the Alpha-technology compatible Envision multilabel plate reader using AlphaScreen protocol according to manufacturer's specifications. The agonist effect of compounds was expressed as 100×(average sample-average blank)/(average total−average blank) where sample is the luminescence activity in the presence of test compound, blank is equal to the luminescence activity in the presence of DMSO control and the total is signal induced by 50 μM linolenic acid as reference compound. Activation data for the test compound over a range of concentrations was plotted as percentage activation of the test compound (100%=maximum response). After correcting for background, EC50 values were determined. The EC50 is defined as the concentration of test compound which produces 50% of the maximal response and was quantified using the 4 parameter logistic equation to fit the data.
The human and mouse GPR120-mediated intracellular phosphorylated ERK assays were also established using CHO-K1 cells stably transfected with the short form of human or mouse GPR120 receptor. […]

Sequence of human GPR120 (Q5NUL3 whole entry): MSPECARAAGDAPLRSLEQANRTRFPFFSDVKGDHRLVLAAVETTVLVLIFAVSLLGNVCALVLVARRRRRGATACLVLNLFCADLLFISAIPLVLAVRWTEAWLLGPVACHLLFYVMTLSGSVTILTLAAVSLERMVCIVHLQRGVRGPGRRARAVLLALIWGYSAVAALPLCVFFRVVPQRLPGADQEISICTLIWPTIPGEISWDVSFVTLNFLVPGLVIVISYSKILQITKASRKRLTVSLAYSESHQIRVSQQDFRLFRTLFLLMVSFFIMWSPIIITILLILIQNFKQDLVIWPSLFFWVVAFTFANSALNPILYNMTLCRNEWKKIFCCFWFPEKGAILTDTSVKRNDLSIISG

Compared with `O=C(O)[C@H]1C[C@@H]1CCc1ccc([C@@H]2CCC[C@H](Oc3ccccc3)C2)cc1` (single isomer, unassigned) [Example 7], `O=C(O)COCCc1ccc([C@@H]2CCC[C@H](Oc3ccccc3)C2)cc1` (single isomer, unassigned) [Example 4, 2-(4-((+/−)-3-Phenoxycyclohexyl)phenethoxy)acetic acid] is 2.9-fold lower in EC50: 920 nM for the first, 320 nM for the second. The second is the more potent here.

Going from `O=C(O)COCCc1ccc(C2CCC(Oc3ccccc3)C2)cc1` (stereo not drawn) [Example 19, 2-(4-(3-Phenoxycyclopentyl)phenethoxy)acetic acid] to `O=C(O)COCCc1ccc(C2CCCCC(Oc3ccccc3)C2)cc1` (stereo not drawn) [Example 14, 2-(4-(3-Phenoxycycloheptyl)phenethoxy)acetic acid], the EC50 falls from 2130 nM to 630 nM (3.4-fold). The second is the more potent here.

First: Cc1ccc(O[C@H]2CCC[C@@H](c3ccc(CCOCC(=O)O)cc3)C2)cn1 (racemic) [Example 35]
Second: O=C(O)CCCCc1ccc(C2CCCCC(Oc3ccc(Cl)cc3)C2)cc1 (stereo not drawn) [Example 44]
The EC50 of the first is 3-fold higher: 1610 nM for the first, 530 nM for the second.

Going from `O=C(O)COCCc1ccc(N2CCC(Oc3ccccc3)C2)cc1` (stereo not drawn) [Example 59] to `O=C(O)CCCCc1ccc(C2CCCCC(Oc3cccc(Cl)c3)C2)cc1` (stereo not drawn) [Example 45], the EC50 falls from 5270 nM to 2020 nM (2.6-fold).

Compound `CC(C)O[C@H]1CCC[C@@H](c2ccc(OC[C@H]3C[C@@H]3C(=O)O)cc2)C1` (racemic) [Example 43] has an EC50 of over 16000 nM.

— patent US10336684B2, “Phenyl-(aza)cycloalkyl carboxylic acid GPR120 modulators” (BRISTOL-MYERS SQUIBB COMPANY, priority 2014, dated 2019)
